Key:
children with autism = test: 12-week placebo-controlled study of NAC: Clinical Global Impression (CGI); type: in vivo, human
Description: The Clinical Global Impression (CGI) rating scales are commonly used measures of symptom severity, treatment response and the efficacy of treatments in treatment studies of patients with mental disorders (Guy, W., 1976, ECDEU Assessment Manual for Psychopharmacology, Rockville, Md., U.S. Department of Health, Education, and Welfare). The Clinical Global Impression-Severity scale (CGI-S) is a 7-point scale that requires the clinician to rate the severity of the patient's illness at the time of assessment, relative to the clinician's past experience with patients who have the same diagnosis. Considering total clinical experience, a patient is assessed on severity of mental illness at the time of rating 1=normal, not at all ill; 2=borderline mentally ill; 3=mildly ill; 4=moderately ill; 5=markedly ill; 6=severely ill; or 7=extremely ill.
A 12-week, double-blind randomized, placebo-controlled study of NAC in children with autism was conducted in the Autism & Developmental Disabilities Clinic in the Division of Child & Adolescent Psychiatry at Stanford University Medical Center. The recruitment period started in March 2009 and ended in September 2010. Subjects with and without mental retardation were included. After obtaining informed consent, subjects were screened and inclusion and exclusion criteria were assessed. No changes in eligibility criteria were applied throughout the study. This investigation was approved by the institutional review board at Stanford University School of Medicine. An investigational new drug application (IND#100905) was filed with the Food and Drug Administration, and the study was registered in National Institutes of Health at ClinicalTrials.gov (identifier number NCT00627705).
After the screening phase, baseline measures were obtained from subjects continuing to meet inclusion and exclusion criteria. Subjects were then randomized to either placebo or active based on age and gender. As NAC is a nutritional supplement, the quality control is predictably variable and therefore purity is not as stringent as prescription medications. Therefore, in the present study, the stability of the compound was ascertained and the integrity of the active agent was protected by packaging each NAC doses in individual pockets. The active compound and matching placebo were provided by BioAdvantex Pharma, Inc. (Mississauga, Ontario, Canada). […] Subjects randomized to the active drug were initiated at the dose of 900 mg every day for the first 4 weeks, then 900 mg twice daily for 4 weeks and 900 mg three times daily for 4 weeks. (This dose selection was based on previously published studies for other psychiatric conditions (Grant, J. et al., Arch Gen Psychiatry, 66:468-475 (2009); Berk, M. et al., Biol Psychiatry, 64:361-368 (2008); Berk, M. et al., Bio Psychiatry, 64:468-475 (2008)) and the previous experience of our group in studies of children with cystic fibrosis). Alternatively, subjects were initiated at the dose of 900 mg per day, 1,800 mg per day, or 2,700 mg per day of NAC. Alternatively, the subjects were initiated at the dose ranging from 900 mg per day to 2,700 mg per day of NAC.
If a subject could not tolerate a specific dose, s/he would be maintained at the highest tolerated dose. Subjects were evaluated at baseline, week 4, week 8 and week 12. The Aberrant Behavioral Checklist (ABC) (Aman, M. et al., Am J Ment Defic. 89:492-502 (1985)), the Clinical Global Impressions (CGI) (Guy, W., ECDEU Assessment Manual for Psychopharmacology, Rockville, Md., U.S. Department of Health, Education, and Welfare (1976)), and the Dosage Record and Treatment Emergent Symptom Scale (DOTES) (Guy, W., 1976, ECDEU Assessment Manual for Psychopharmacology, Rockville, Md., U.S. Department of Health, Education, and Welfare) were obtained in each visit. […]

[1] = Noszal et al. 2000; cited from earlier work
[2] = standardized mean difference NAC vs placebo at Week 12

## CC(=O)N[C@@H](CS)C(=O)O [NAC, N-acetylcysteine]
Children with autism; Baseline (before treatment), NAC group n = 15
  CGI severity, Mean (SD): 5.1 (0.7)
Children with autism; Week 12, NAC n = 14
  CGI improvement, Mean (SD): 2.9 (1.1)
Children with autism; Week 12, NAC n = 14, 7-point scale
  CGI severity, Mean (SD): 4.5 (0.8)
Children with autism; all randomized participants, p=0.170
  CGI-S global severity, pattern NAC vs placebo: no significant differences
Children with autism; all randomized participants, p=0.449
  CGI-I improvement, pattern NAC vs placebo: no significant differences
Children with autism; [2]
  CGI improvement, Cohen's d: .30
  CGI severity, Cohen's d: .47
[1]
  half-cell potential of the NAC thiol/disulfide pair: about +63 mV
